According to patent US11969460B2, “Methods and compositions for treating decreased cognitive ability” (Saint Louis University, priority 2018, dated 2024):
Several values for one entry are separate records, joined by “and”; a condition that tells them apart may be missing. Equal entries are not always repeated.

Columns and labels:
[1] = test system: male C57BL/6J (B6) mice, aged 18 months; assay: Novel Object Recognition test after exogenous adropin^34-76 treatment; assay type: in vivo, mouse
Procedure: For the novel object recognition task, mice are habituated to an empty apparatus, a 58×66×11-cm white plastic box, for 5 min a day for 3 consecutive days prior to entry of objects. On the first day of training, mice are placed in the testing apparatus with two identical objects (A and B). 24h later the animal is reintroduced to the arena but this time one of the original objects is removed and a new object (C). Total time spent exploring each of the two objects is recorded. Anxiety will be assessed using open field and elevated plus maze tests. The experimental apparatus consists of a central platform, two open arms and two equal-sized closed arms opposite to each other. The test consisted of placing a mouse in the central platform facing an enclosed arm and allowing it to freely explore the maze for 5 min. The number of entries into the open and closed arms and the time spent in open arms was measure by an observer blind to treatment
(§1) To examine the effects of […] adropin on a subject's cognitive ability, 34 male C57BL/6J (B6) mice, aged 18 months, were treated with exogenous adropin^34-76. Mice were purchased from The Jackson Laboratory (Bar Harbor, ME). After acclimation for 1 month, mice were separated into two weight matched groups of 15 mice: Group 1 adropin^34-76 treatment group and Group 2 saline vehicle control.
(§2) The mice were administered a single intraperitoneal injection (volume 100 μl) each morning (0900h) for 4 weeks. Group 1 was administered adropin^34-76 at a dose of 90 nmol/kg/day. Group 2 was administered saline. The peptide was purchased from Neoscientific Inc. Behavioral testing began after 2 weeks of injections. Injections continued though testing until 4 weeks.
A non-amnesic subject will spend more time exploring the novel object than the familiar one. When adropin treated and vehicle treated mice were subjected to the Novel Object Recognition test, adropin treated mice spent more time exploring the novel object (FIG. 11, Table 1)

[2] = test system: male C57BL/6J (B6) mice, aged 18 months; assay: Aversive T-maze acquisition after exogenous adropin^34-76 treatment; assay type: in vivo, mouse
Procedure: (§3) Memory retention and acquisition were assessed using an aversive T-maze and novel objective recognition, as previously described (Farr et al., (2016) J Alzheimers Dis.; 54(4):1339-1348). Briefly, the T-maze consists of a black plastic alley with a start box at one end and two goal boxes at the other. An electrifiable floor of stainless steel rods run throughout the maze to deliver a foot-shock using a scrambled grid floor shocker (Model E13-08, Coulbourn Instruments, Whitehall, PA). Mice are not permitted to explore the maze prior to training. A block of training trials begins when mice are placed in the start box. The guillotine door is raised and a cue buzzer sounded simultaneously (doorbell type, at 55 dB); 5s later a mild aversive foot-shock is applied with an intensity of 0.35 mA. The arm of the maze entered on the first trial is designated “incorrect” and the mild foot-shock continued until the mouse enters the other goal box, which in all subsequent trials is designated “correct” for each mouse. Mice are trained until they made one active avoidance, with an inter-trial interval of 30-35s. The number of trials to make one active avoidance is the measure of acquisition. Retention is tested 7d later, with training continued until the criterion of making five active avoidances in six consecutive trials is achieved. The number of trials needed to reach this criterion is the measure of retention(Butler et al., (2012) The Journal of clinical endocrinology and metabolism.; 97(10):3783-3791; Wong et al., (2014) The Journal of biological chemistry.; 289(37):25976-25986).
as §1, §2
Mice prepared with adropin or placebo in Example 3 were subjected to the Acquisition T-maze test.

[3] = test system: male C57BL/6J (B6) mice, aged 18 months; assay: Aversive T-maze retention after exogenous adropin^34-76 treatment; assay type: in vivo, mouse; design: key to T-maze Retention, Difference between means (Adropin vs. Vehicle): difference in trials to criterion, adropin minus vehicle; key to T-maze Retention: number of trials to reach criterion (5 avoidances in 6 trials)
Procedure: as §3, §1, §2
(FIG. 12, Table 3) Mice were retested in the maze after 7 days and Adropin treated mice retained learned memories and complete the maze in lets time.

[4] = Body weight and deaths during 4-week intraperitoneal treatment; assay type: in vivo; settings: group 1, 90 nmol/kg/day intraperitoneal
Procedure: as §1, §2

mice [5] = assay: Metabolic effects of administered adropin^34-76 in mice; assay type: in vivo, mouse
Source text: The inventors have engineered transgenic mice that over express adropin (“AdrTG”) in the nervous system and peripheral tissues. […] In addition, reduced JNK phosphorylation and expression of cytokines indicates reduced neuroinflammatory processes. Inflammation is also increasingly considered an important predisposing risk factor for age-related neurodegeneration (Irwin & Vitiello (2019) Lancet Neurol. 18(3):296-306; Madhavan et a., Nat Rev Cardiol. 15(12):744-756). […] In addition, the inventors have also shown that adropin levels may be increased systemically by […] administration. […] (Kumar et al. 2008; Gao et al. 2014, 2015)
Using mice, the Inventors have shown that administration of adropin^34-76, in doses as low as 90 nmol/kg/day, delivered as two 45 nmol/kg injections, can be effective in producing changes in metabolism. Dose as high as 900 nmol/kg/d are well tolerated in mice. While the doses required for a desired clinical effect in humans is expected to vary between patients, the 90 nmol/kg dose administered by subcutaneous, intramuscular, or intravenous injection, either once or twice a day, may represent a preferred treatment protocol. […] The optimum dose and frequency for a particular subject may be determined by the patient's treating physician, based on the patient's cognitive response. […]

mice [6] = assay: Tolerability of adropin^34-76 doses in mice; assay type: in vivo, mouse
Source text: Using mice, the Inventors have shown that administration of adropin^34-76, in doses as low as 90 nmol/kg/day, delivered as two 45 nmol/kg injections, can be effective in producing changes in metabolism. Dose as high as 900 nmol/kg/d are well tolerated in mice. While the doses required for a desired clinical effect in humans is expected to vary between patients, the 90 nmol/kg dose administered by subcutaneous, intramuscular, or intravenous injection, either once or twice a day, may represent a preferred treatment protocol. It is anticipated that the treatments would be administered daily, although long-acting formulations involving weekly injections are envisaged. The optimum dose and frequency for a particular subject may be determined by the patient's treating physician, based on the patient's cognitive response. It is anticipated that adropin therapy may or may not improve a subject's cognitive function relative to current baseline, however adropin therapy may result in significant delays in the advancement of the disease. Improvement may manifest as a significant delay or a reduced rate of subsequent cognitive decline.

mice [7] = settings: subjects with diet-induced obesity; Kumar et al. 2008; Gao et al. 2014, 2015; cited from earlier work

Q: With “Adropin^34-76 (CHSRSADVDSLSESSPNSSPGPCPEKAPPPQKPSHEGSYLLQP; listed as Homo sapiens)” as the substance, how does the “Novel Object Recognition % Novel Object, Difference between means (Adropin vs. Vehicle)” value ([1]; 95% confidence interval 2.733 to 27.24) read?
A: 14.99 ± 5.982%

Q: What about the “Novel Object Recognition test 24 Hour delay % Novel Object” value ([1]; individual mice, 90 nmol/kg/day intraperitoneal, 24 hour delay) of the same substance?
A: 55.56% and 77.50% and 66.67% and 79.10% and 51.06% and 100.00% and 51.61% and 46.43% and 42.86% and 53.06% and 37.50% and 40.74% and 64.58% and 62.50% and 58.82%

Q: And the “Novel Object Recognition % Novel Object, Mean ± SEM” value ([1]; n = 15, 90 nmol/kg/day intraperitoneal, P 0.0183 vs. Vehicle)?
A: 58.88 ± 4.106, n = 15%

Q: What about the “cognitive performance in Novel Object Recognition test (in words)” value ([1]; vs vehicle treated mice) of the same substance?
A: improved cognitive performance

Q: And the “T-maze acquisition, Difference between means (Adropin vs. Vehicle)” value ([2]; 95% confidence interval −4.736 to −2.150)?
A: −3.443 ± 0.6301

Q: What about the T-maze acquisition ([2]; individual mice, number of trials to make one active avoidance, 90 nmol/kg/day intraperitoneal) of the same substance?
A: 7. (5×) and 8. (4×) and 9. (2×) and 6. (3×)

Q: And the “T-maze acquisition, Mean ± SEM” value ([2]; n = 14, P <0.0001 vs. Vehicle)?
A: 7.357 ± 0.2695,

Q: And the “performance in Acquisition T-maze test (in words)” value ([2]; vs placebo treated mice)?
A: improved performance

Q: What about the “T-maze Retention, Difference between means (Adropin vs. Vehicle)” value ([3]; 95% confidence interval −3.121 to −1.565) of the same substance?
A: −2.343 ± 0.3792

Q: What about the “T-maze Retention” value ([3]; individual mice, retested after 7 days, trials to five active avoidances in six consecutive trials, 90 nmol/kg/day intraperitoneal) of the same substance?
A: 7. (7×) and 8. and 6. (5×) and 9.

Q: What about the “T-maze Retention, Mean ± SEM” value ([3]; n = 14, P <0.0001 vs. Vehicle) of the same substance?
A: 6.857 ± 0.2310,

Q: What about the “performance in T-maze retention (in words)” value ([3]; retested after 7 days) of the same substance?
A: superior performance

Q: And the deaths during treatment [4]?
A: One mouse in group 1 died

Q: And the “dose known to affect metabolic control” value (mice [5]; male B6 mice, injection)?
A: about 450 nmol/kg

Q: And the “dose effective in producing changes in metabolism” value (mice [5]; mice, delivered as two 45 nmol/kg injections)?
A: ≥ 90 nmol/kg/day

Q: And the well tolerated dose (mice [6])?
A: ≤ 900 nmol/kg/day

Q: What about the “metabolic changes after intraperitoneal injection (in words)” value (mice [7]) of the same substance?
A: metabolic changes suggesting improvements in glucose control and reduced risk for type 2 diabetes
